# Results reported in patent publication US20200384064A1, “COMPOSITIONS AND METHODS USING HIGH PROTEIN FOR INDUCTION OF AUTOPHAGY” (SOCIETE DES PRODUiTS NESTLE S.A., priority 2017, published 2020).
# Tested on: LC3 positive punctae in embryo muscles
# Assay: LC3 positive punctae count in muscles of transgenic LC3-ZsGreen zebrafish embryos
# Format: in vivo
# Procedure: Autophagy was measured by counting the number of LC3 positive punctae in embryo muscles, normalized by total area. A zebrafish autophagy reporter has been generated by stable expression of the LC3 protein fused to ZsGreen under the control of a skeletal muscle specific promoter, hereafter LC3-ZsGreen. Embryos from outcrossed transgenic zebrafish have been raised at 28° C. under standard laboratory conditions and have been treated at 48 h post-fertilization in 96 well plates (n=24). After 16 hours of treatment embryos were anesthetized with 0.016% tricaine and imaged with ImageXpress confocal system at 20× magnification (Molecular Devices). After acquisition embryos were further treated with NH4Cl 100 mM for 4 h to block LC3 degradation and imaged again. Z stack images were captured for each embryo and maximal projection images were produced. Number of LC3 punctae have been calculated with MetaXpress software (Moleculare Devices) and normalized by fish area.
smiles,measurement,setting,value
"CC(C)[C@H](N)C(=O)O [Valine, valine]","Number of LC3 positive punctae in embryo muscles, normalized by total area","500 μM in fish water, 16 hours of treatment from 48 h post-fertilization",induced an increase of LC3 positive punctae
same,Autophagic flux (LC3 punctae in presence of the lysosomal inhibitor NH4Cl),"500 μM, then NH4Cl 100 mM for 4 h",increase of autophagic flux
